According to US20240158370A1, “CK1 alpha AND DUAL CK1 alpha / GSPT1 DEGRADING COMPOUNDS” (Innovo Therapeutics, Inc., priority 2022, published 2024):

Experiments:
GSPT1 = GSPT1 (Homo sapiens, UniProt P15170+Q96SW2); assay: HiBiT degradation assay, GSPT1, Procedure A; assay type: cell-based; design: HiBit-GSPT1 KI HEK293(LgBit) Cells; host or cells: HEK293(LgBit) knock-in cells; details: six hours incubation
How it was run: (§1)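 10-pt dose response, 10–0.005 μM, 0.1% DMSO; cells 1×10^6/ml in DMEM/10% FBS, 6 h, 37° C; HiBiT lytic detection, luminescence; DC50 + Ymin by 4-parameter fit.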

CK1α = biological target: T1, CK1α (Homo sapiens, UniProt P48729+Q96SW2); assay: HiBiT degradation assay, CK1α, Procedure A; assay type: cell-based; details: six hours incubation
T1 construct: CSNK1A1-HiBit KI HEK293(LgBit) Cells; host or cells: HEK293(LgBit) knock-in cells
How it was run: as §1

T1 sequence (P48729 whole entry): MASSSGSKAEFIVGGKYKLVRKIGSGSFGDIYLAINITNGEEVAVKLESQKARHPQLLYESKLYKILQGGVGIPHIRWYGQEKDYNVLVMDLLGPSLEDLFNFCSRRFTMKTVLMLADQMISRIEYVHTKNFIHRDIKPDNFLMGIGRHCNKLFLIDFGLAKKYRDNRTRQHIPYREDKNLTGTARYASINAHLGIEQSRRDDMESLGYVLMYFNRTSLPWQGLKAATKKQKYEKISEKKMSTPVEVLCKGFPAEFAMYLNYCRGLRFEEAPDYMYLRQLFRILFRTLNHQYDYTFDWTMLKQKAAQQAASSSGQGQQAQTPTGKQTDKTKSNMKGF
T1 sequence (Q96SW2 whole entry): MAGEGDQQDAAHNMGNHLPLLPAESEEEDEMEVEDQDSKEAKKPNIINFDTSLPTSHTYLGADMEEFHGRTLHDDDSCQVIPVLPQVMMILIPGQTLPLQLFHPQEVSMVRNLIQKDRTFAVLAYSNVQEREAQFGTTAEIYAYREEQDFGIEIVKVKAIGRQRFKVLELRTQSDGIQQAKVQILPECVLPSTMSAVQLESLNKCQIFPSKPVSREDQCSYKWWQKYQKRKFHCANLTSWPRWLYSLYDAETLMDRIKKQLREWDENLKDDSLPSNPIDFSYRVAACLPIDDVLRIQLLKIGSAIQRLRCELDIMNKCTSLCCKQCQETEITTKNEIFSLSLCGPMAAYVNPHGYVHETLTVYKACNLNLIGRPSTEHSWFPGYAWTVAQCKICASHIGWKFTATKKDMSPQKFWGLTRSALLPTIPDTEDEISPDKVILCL
T1 sequence (Q16531 whole entry partner): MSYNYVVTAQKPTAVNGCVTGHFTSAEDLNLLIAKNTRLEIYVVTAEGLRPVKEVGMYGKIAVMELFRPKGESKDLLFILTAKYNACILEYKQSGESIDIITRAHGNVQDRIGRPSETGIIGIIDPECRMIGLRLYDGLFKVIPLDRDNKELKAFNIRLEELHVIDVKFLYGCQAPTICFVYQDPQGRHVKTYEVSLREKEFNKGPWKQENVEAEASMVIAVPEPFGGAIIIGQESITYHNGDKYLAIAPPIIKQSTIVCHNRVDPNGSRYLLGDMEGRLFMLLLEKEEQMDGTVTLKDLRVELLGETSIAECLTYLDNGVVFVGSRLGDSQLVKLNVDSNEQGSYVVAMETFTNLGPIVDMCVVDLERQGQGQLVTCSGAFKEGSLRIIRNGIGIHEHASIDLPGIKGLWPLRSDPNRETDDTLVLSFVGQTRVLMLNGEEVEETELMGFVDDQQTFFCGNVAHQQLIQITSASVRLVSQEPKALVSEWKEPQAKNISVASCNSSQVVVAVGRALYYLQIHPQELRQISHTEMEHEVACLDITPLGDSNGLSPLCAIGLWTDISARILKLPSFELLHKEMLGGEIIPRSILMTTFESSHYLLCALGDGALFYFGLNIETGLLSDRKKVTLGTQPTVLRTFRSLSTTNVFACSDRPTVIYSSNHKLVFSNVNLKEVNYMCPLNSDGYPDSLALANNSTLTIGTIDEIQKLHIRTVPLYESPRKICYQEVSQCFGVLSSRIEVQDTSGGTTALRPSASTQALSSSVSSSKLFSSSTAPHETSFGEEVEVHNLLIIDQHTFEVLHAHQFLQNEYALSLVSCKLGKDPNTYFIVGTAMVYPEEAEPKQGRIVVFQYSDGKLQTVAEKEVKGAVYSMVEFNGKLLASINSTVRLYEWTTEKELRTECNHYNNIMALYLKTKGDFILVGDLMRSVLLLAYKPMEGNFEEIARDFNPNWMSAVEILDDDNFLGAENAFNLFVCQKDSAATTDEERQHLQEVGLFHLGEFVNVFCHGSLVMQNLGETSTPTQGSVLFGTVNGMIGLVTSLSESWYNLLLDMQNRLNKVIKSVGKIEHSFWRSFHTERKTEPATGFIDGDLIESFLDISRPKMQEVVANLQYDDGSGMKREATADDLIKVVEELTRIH
Sequence of GSPT1 (P15170 whole entry): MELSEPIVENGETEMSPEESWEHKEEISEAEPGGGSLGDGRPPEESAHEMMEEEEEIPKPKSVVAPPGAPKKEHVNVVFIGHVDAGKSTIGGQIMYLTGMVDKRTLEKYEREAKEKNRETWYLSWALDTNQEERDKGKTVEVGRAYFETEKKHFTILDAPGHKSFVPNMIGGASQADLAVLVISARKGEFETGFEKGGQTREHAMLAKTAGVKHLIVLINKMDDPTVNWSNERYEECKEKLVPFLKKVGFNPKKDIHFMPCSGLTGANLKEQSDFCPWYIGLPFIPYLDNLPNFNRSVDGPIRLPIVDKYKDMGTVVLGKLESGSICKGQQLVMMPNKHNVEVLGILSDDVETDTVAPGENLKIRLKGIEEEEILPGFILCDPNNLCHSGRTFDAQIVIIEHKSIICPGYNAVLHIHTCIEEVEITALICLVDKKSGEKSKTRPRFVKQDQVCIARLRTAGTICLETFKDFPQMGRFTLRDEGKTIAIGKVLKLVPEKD
Sequence of GSPT1 (Q96SW2 whole entry): as the sequence (Q96SW2 whole entry) above
Sequence of GSPT1 (Q16531 whole entry partner): as the sequence (Q16531 whole entry partner) above

Compound	DC50 (GSPT1) [nM]	GSPT1 Ymin (GSPT1)	CK1α Ymin (CK1α)	DC50 (CK1α) [nM]
CN(C)C(=O)c1ccc(-c2c(-c3ccc4c(c3)CN(C3CCC(=O)NC3=O)C4=O)ncn2C)cc1 (stereo not shown) [Example 289]	≥ 25	F (F = >75-100% remaining)	C (C = 0-10% remaining)	≥ 25
CN(C)C(=O)c1cccc(-c2c(-c3ccc4c(c3)CN(C3CCC(=O)NC3=O)C4=O)ncn2C)c1 (stereo not shown) [Example 290]	≥ 25	F (F = >75-100% remaining)	D (D = >10- 25% remaining)	≥ 25
Cn1cnc(-c2ccc3c(c2)CN(C2CCC(=O)NC2=O)C3=O)c1-c1cccc(-c2ccccc2)c1 (stereo not shown) [Example 291]	≥ 25	F (F = >75-100% remaining)	E (E = >25-75% remaining)	< 25
Cn1cnc(-c2ccc3c(c2)CN(C2CCC(=O)NC2=O)C3=O)c1-c1cccc(CN2CCCC2)c1 (stereo not shown) [Example 295]	≥ 25	F (F = >75-100% remaining)	D (D = >10- 25% remaining)	≥ 25
Cn1cnc(-c2ccc3c(c2)CN(C2CCC(=O)NC2=O)C3=O)c1-c1cccc(N2CCCCC2)c1 (stereo not shown) [Example 296]	≥ 25	F (F = >75-100% remaining)	E (E = >25-75% remaining)	< 25
Cn1cnc(-c2ccc3c(c2)CN(C2CCC(=O)NC2=O)C3=O)c1-c1cccc(N2CCOCC2)c1 (stereo not shown) [Example 297]	≥ 25	F (F = >75-100% remaining)	E (E = >25-75% remaining)	< 25
Cn1cnc(-c2ccc3c(c2)CN(C2CCC(=O)NC2=O)C3=O)c1-c1ccc(-c2ccc(O)cc2)cc1 (stereo not shown) [Example 298]	≥ 25	F (F = >75-100% remaining)	E (E = >25-75% remaining)	< 25
Cn1cnc(-c2ccc3c(c2)CN(C2CCC(=O)NC2=O)C3=O)c1-c1ccc(-c2ccc(C#N)cc2)cc1 (stereo not shown) [Example 299]	≥ 25	F (F = >75-100% remaining)	C (C = 0-10% remaining)	< 25
Cn1cnc(-c2ccc3c(c2)CN(C2CCC(=O)NC2=O)C3=O)c1-c1ccc(C(=O)NC2CCCC2)cc1 (stereo not shown) [Example 300]	≥ 25	F (F = >75-100% remaining)	D (D = >10- 25% remaining)	≥ 25
Cn1cnc(-c2ccc3c(c2)CN(C2CCC(=O)NC2=O)C3=O)c1-c1cccc2c1CCC2 (stereo not shown) [Example 301]	≥ 25	F (F = >75-100% remaining)	D (D = >10- 25% remaining)	< 25
Cn1cnc(-c2ccc3c(c2)CN(C2CCC(=O)NC2=O)C3=O)c1-c1cccc(C(=O)NC2CCCCC2)c1 (stereo not shown) [Example 302]	≥ 25	F (F = >75-100% remaining)	E (E = >25-75% remaining)	≥ 25
COc1cccc(COc2cccc(-c3c(-c4ccc5c(c4)CN(C4CCC(=O)NC4=O)C5=O)ncn3C)c2)c1 (stereo not shown) [Example 303]	≥ 25	F (F = >75-100% remaining)	E (E = >25-75% remaining)	< 25
Cn1cnc(-c2ccc3c(c2)CN(C2CCC(=O)NC2=O)C3=O)c1-c1ccc(S(C)(=O)=O)cc1 (stereo not shown) [Example 306]	≥ 25	E (E = >25-75% remaining)	E (E = >25-75% remaining)	≥ 25
Cn1cnc(-c2ccc3c(c2)CN(C2CCC(=O)NC2=O)C3=O)c1-c1ccc(Oc2cccnc2)cc1 (stereo not shown) [Example 308]	≥ 25	F (F = >75-100% remaining)	D (D = >10- 25% remaining)	< 25
Cn1cnc(-c2ccc3c(c2)CN(C2CCC(=O)NC2=O)C3=O)c1-c1ccc(OCc2ccccc2)cc1 (stereo not shown) [Example 310]	≥ 25	F (F = >75-100% remaining)	D (D = >10- 25% remaining)	< 25
CN1CCN(Cc2cccc(-c3c(-c4ccc5c(c4)CN(C4CCC(=O)NC4=O)C5=O)ncn3C)c2)CC1 (stereo not shown) [Example 312]	≥ 25	F (F = >75-100% remaining)	D (D = >10- 25% remaining)	≥ 25
CN1CCN(Cc2ccc(-c3c(-c4ccc5c(c4)CN(C4CCC(=O)NC4=O)C5=O)ncn3C)cc2)CC1 (stereo not shown) [Example 313]	≥ 25	F (F = >75-100% remaining)	D (D = >10- 25% remaining)	≥ 25
Cn1cnc(-c2ccc3c(c2)CN(C2CCC(=O)NC2=O)C3=O)c1-c1ccc(C(=O)N2CCOCC2)cc1 (stereo not shown) [Example 314]	≥ 25	F (F = >75-100% remaining)	E (E = >25-75% remaining)	≥ 25
Cn1cnc(-c2ccc3c(c2)CN(C2CCC(=O)NC2=O)C3=O)c1-c1ccc(N2CCOCC2)c(Cl)c1 (stereo not shown) [Example 315]	≥ 25	F (F = >75-100% remaining)	D (D = >10- 25% remaining)	< 25
Cn1cnc(-c2ccc3c(c2)CN(C2CCC(=O)NC2=O)C3=O)c1-c1ccncc1 (stereo not shown) [Example 317]	≥ 25	F (F = >75-100% remaining)	D (D = >10- 25% remaining)	< 25
Cc1nocc1-c1c(-c2ccc3c(c2)CN(C2CCC(=O)NC2=O)C3=O)ncn1C (stereo not shown) [Example 320]	≥ 25	F (F = >75-100% remaining)	D (D = >10- 25% remaining)	< 25
Cc1cncc(-c2c(-c3ccc4c(c3)CN(C3CCC(=O)NC3=O)C4=O)ncn2C)c1 (stereo not shown) [Example 321]	≥ 25	F (F = >75-100% remaining)	D (D = >10- 25% remaining)	< 25
Cc1nn(C)cc1-c1c(-c2ccc3c(c2)CN(C2CCC(=O)NC2=O)C3=O)ncn1C (stereo not shown) [Example 323]	≥ 25	F (F = >75-100% remaining)	E (E = >25-75% remaining)	≥ 25
Cc1cc(-c2c(-c3ccc4c(c3)CN(C3CCC(=O)NC3=O)C4=O)ncn2C)n(C)n1 (stereo not shown) [Example 324]	≥ 25	F (F = >75-100% remaining)	E (E = >25-75% remaining)	≥ 25
Cn1cnc(-c2ccc3c(c2)CN(C2CCC(=O)NC2=O)C3=O)c1-c1cnc(C#N)nc1 (stereo not shown) [Example 325]	≥ 25	F (F = >75-100% remaining)	E (E = >25-75% remaining)	≥ 25

The next lines start with the values.

DC50 (GSPT1) [nM]	GSPT1 Ymin (GSPT1)	CK1α Ymin (CK1α)	DC50 (CK1α) [nM]	Compound
< 25	E (E = >25-75% remaining)	C (C = 0-10% remaining)	< 25	Cn1cnc(-c2ccc3c(c2)CN(C2CCC(=O)NC2=O)C3=O)c1-c1ccc(N2CCCC2)cc1 (stereo not shown) [Example 288]
< 25	F (F = >75-100% remaining)	E (E = >25-75% remaining)	≥ 25	Cn1cnc(-c2ccc3c(c2)CN(C2CCC(=O)NC2=O)C3=O)c1-c1ccc(F)c(C(F)(F)F)c1 (stereo not shown) [Example 293]
< 25	E (E = >25-75% remaining)	D (D = >10- 25% remaining)	< 25	Cn1cnc(-c2ccc3c(c2)CN(C2CCC(=O)NC2=O)C3=O)c1-c1ccc(-c2ccccc2)cc1 (stereo not shown) [Example 294]
< 25	F (F = >75-100% remaining)	D (D = >10- 25% remaining)	< 25	Cn1cnc(-c2ccc3c(c2)CN(C2CCC(=O)NC2=O)C3=O)c1-c1ccc(OCc2ccccc2)c(Cl)c1 (stereo not shown) [Example 304]
< 25	F (F = >75-100% remaining)	C (C = 0-10% remaining)	< 25	Cn1cnc(-c2ccc3c(c2)CN(C2CCC(=O)NC2=O)C3=O)c1-c1ccc(-c2ccncc2)cc1 (stereo not shown) [Example 305]
< 25	F (F = >75-100% remaining)	D (D = >10- 25% remaining)	≥ 25	Cn1cnc(-c2ccc3c(c2)CN(C2CCC(=O)NC2=O)C3=O)c1-c1ccc(C(=O)NCc2ccccc2)c(Cl)c1 (stereo not shown) [Example 307]
< 25	F (F = >75-100% remaining)	D (D = >10- 25% remaining)	< 25	Cn1cnc(-c2ccc3c(c2)CN(C2CCC(=O)NC2=O)C3=O)c1-c1ccc(CN2CCOCC2)cc1 (stereo not shown) [Example 309]
< 25	E (E = >25-75% remaining)	D (D = >10- 25% remaining)	< 25	Cn1cnc(-c2ccc3c(c2)CN(C2CCC(=O)NC2=O)C3=O)c1-c1ccc(COc2ccccc2)cc1 (stereo not shown) [Example 311]
< 25	F (F = >75-100% remaining)	D (D = >10- 25% remaining)	< 25	Cn1cnc(-c2ccc3c(c2)CN(C2CCC(=O)NC2=O)C3=O)c1C1CC1 (stereo not shown) [Example 316]
< 25	F (F = >75-100% remaining)	E (E = >25-75% remaining)	< 25	Cn1cnc(-c2ccc3c(c2)CN(C2CCC(=O)NC2=O)C3=O)c1-c1ccnn1C (stereo not shown) [Example 318]
< 25	F (F = >75-100% remaining)	C (C = 0-10% remaining)	< 25	Cc1c(-c2c(-c3ccc4c(c3)CN(C3CCC(=O)NC3=O)C4=O)ncn2C)cnn1C (stereo not shown) [Example 322]
< 25	F (F = >75-100% remaining)	C (C = 0-10% remaining)	< 25	Cn1cnc(-c2ccc3c(c2)CN(C2CCC(=O)NC2=O)C3=O)c1-c1cnn(C2CC2)c1 (stereo not shown) [Example 326]
